In PubChem BioAssay (NCI) one finds TGI data, which are given here for 14 compounds.

The structures appear in SMILES notation.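 Values below derive from 48-hour exposures of cells grown in 96-well plates, with endpoints linearly interpolated between the two concentrations bracketing the appropriate inhibition level. The concentration for full growth arrest is given as TGI.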 Where only a bound is given, the exact number is not on record here.

Holding throughout (experiment): growth of human tumour cells (NCI), 48 h
Experiment [1] relates to A549 NSCLC.
Experiment [2] has as its system KM12 colon.
Experiment [3] concerns SW-620 colon.
Experiment [4] relates to LOX IMVI melanoma.
The test system of experiment [5] is K-562 leukemia.
Experiment [6] relates to SK-MEL-2 melanoma.
The subject of experiment [7] is CCRF-CEM leukemia.
Experiment [8] has as its system SN12C renal.
Experiment [9] deals with SF-268 CNS.
In experiment [10] the test system is SF-539 CNS.

On to `CN1[C@@H]2C[C@@H](OC(=O)[C@H](CO)c3ccccc3)C[C@H]1[C@@H]1O[C@@H]12`, for which the TGI in experiment [1], in experiment [2], in experiment [3], in [4], in experiment [5] and in experiment [6] was greater than 100 µM each time. Further, the TGI in experiment [7] and in experiment [8] was greater than 100 µM throughout.
In the case of `CCOC(=O)NC(Nc1ccc([N+](=O)[O-])cc1)(C(F)(F)F)C(F)(F)F`, the TGI in experiment [1], in experiment [2], in [3], in experiment [4], in experiment [5] and in experiment [6] was greater than 100 µM in each case. Further, the TGI in experiment [9], in [10], in experiment [7] and in experiment [8] was greater than 100 µM each time.
Regarding `O=C1NC2OC(C(O)CO)C(O)C2O1` (stereo unspecified), the TGI in [1], in experiment [2], in [3], in [4], in [5] and in experiment [6] was greater than 100 µM throughout. The TGI in [9], in experiment [7] and in [8] was greater than 100 µM each time.
Take `O=C1CSC(/C(=N/Nc2ccccc2)c2nc3ccccc3[nH]2)=N1`: the TGI in [1], in [2], in experiment [3], in [4], in experiment [5] and in [6] was greater than 100 µM throughout. In addition, the TGI was greater than 100 µM in experiment [9], 85.2 µM in [10], 53.6 µM in experiment [7] and greater than 100 µM in experiment [8].
`COc1cccc(/C=N/n2c(C)n[nH]c2=O)c1`: the TGI in [1], in experiment [2], in experiment [3], in experiment [5], in experiment [6] and in experiment [9] was greater than 100 µM throughout. The TGI in experiment [10], in experiment [7] and in experiment [8] was greater than 100 µM throughout.
Regarding `Nc1nc(Cl)cc(NCC2(CO)CCCC2)n1`, the TGI in experiment [1], in experiment [2], in [3], in experiment [4], in [5] and in [6] was greater than 100 µM each time. The TGI in experiment [9], in experiment [10], in experiment [7] and in [8] was greater than 100 µM each time.
With `Cn1c(COC(=O)Nc2ccccc2)c(COC(=O)Nc2ccccc2)c2ccc3cc(Cl)c(Cl)cc3c21`, the TGI in experiment [1] is greater than 75 µM; in [2], 23.4 µM; in experiment [3], greater than 75 µM; in [4], 13.5 µM; in experiment [5] it was greater than 75 µM; in experiment [6], 17.9 µM. Besides, the TGI in experiment [9] was 21.9 µM; in experiment [10] it was 44.6 µM; in experiment [7] it was greater than 75 µM; in [8], 16.4 µM.
On to `CC1=NNC(=O)C1C(CC(=O)c1c[nH]c2ccccc12)C(=O)O` (stereo unspecified), for which the TGI in experiment [1], in experiment [2], in experiment [3], in experiment [4], in experiment [5] and in experiment [6] was greater than 100 µM throughout. Further, the TGI in experiment [9], in experiment [10], in experiment [7] and in [8] was greater than 100 µM in each case.
For `Cc1ccc(O)c(-c2cscn2)c1`, the TGI in experiment [1], in experiment [3], in experiment [4], in experiment [5], in experiment [6] and in experiment [10] was greater than 100 µM throughout. The TGI in experiment [7] and in experiment [8] was greater than 100 µM each time.
`CSc1sc2ccccc2[s+]1`: the TGI in experiment [1], in [2], in [3], in experiment [4], in experiment [5] and in experiment [6] was greater than 100 µM each time. For the same compound, the TGI in experiment [9], in experiment [10], in experiment [7] and in experiment [8] was greater than 100 µM in each case.
Consider `C=C1C(=O)C=C[C@]2(C)CC[C@H]3C(=C)C(=O)O[C@@H]3[C@@H]12`, for which the TGI was determined as 29.8 µM in [1]; 3.53 µM in experiment [2]; 5.34 µM in experiment [3]; 3.94 µM in [4]; 4.24 µM in [5]; 6.99 µM in experiment [6]. For the same compound, the TGI in experiment [9] was 11.7 µM; in [10], 2.61 µM; in experiment [7], greater than 100 µM; in experiment [8], 7.49 µM.
For the compound `CC(C)(Cl)C(Br)CCC(=CCCl)CBr` (mixture of isomers), the TGI is 32.8 µM in [1]; 4.04 µM in [2]; 4.43 µM in experiment [3]; greater than 20.1 µM in experiment [5]; 9.93 µM in experiment [6]; 4.21 µM in experiment [9]. Also, the TGI in [10] is 3.96 µM; in experiment [7], greater than 21.1 µM; in experiment [8], 7.06 µM.
For the compound `CCC/C(Cl)=N\OC(=O)Nc1ccc(OC(F)(F)F)cc1`, the TGI in experiment [1] was 42.3 µM; in experiment [2], 30.8 µM; in [4], 8.78 µM; in experiment [5], greater than 20.1 µM; in [6] it was 32.9 µM; in experiment [9], greater than 84.7 µM. Besides, the TGI in [10] is 33.3 µM; in experiment [7] it was greater than 26.7 µM; in experiment [8], 21.1 µM.
As to `Cc1cc(S(=O)(=O)Nc2nc3cc(-c4ccc(Cl)cc4)sc3c(=O)n2N)c(S)cc1Cl`, the TGI in [1], in experiment [2], in experiment [3], in [4], in [5] and in [6] was greater than 100 µM in each case. For the same compound, the TGI in [9] was greater than 100 µM; in experiment [7], 59 µM; in [8], greater than 100 µM.
